Measurements published in patent publication US9156790B2, “Anticancer P21-activated kinase inhibitors” (Ohio State Innovation Foundation, priority 2013, dated 2015).

Key:
[1] = test system: PDK1 phosphorylation of Akt (Thr308); test: Western blot, PDK1 phosphorylation of Akt (Thr308) in thyroid cancer cells; assay type: cell-based, Human; conditions: 7.5 μM, 6 h, BCPAP, FTC133 and TPC1 cells (FIG. 3)
Method: (§1) Protein isolation and Western blot were performed as previously described. Ringel et al., Cancer research 61:6105-6111 (2001). 25 μg of total cell lysates were loaded into 4-12% SDS-PAGE, electrophoresed, and transferred to nitrocellulose membranes for immunoblotting. Primary antibodies against Akt (#9272), phospho-Akt (Thr308) (#2965), p44/42 MAPK (Erk1/2) (#9107), phospho-p44/42 MAPK (Erk1/2) (Thr202/Tyr204) (#4377) and GAPDH (#2118) were obtained from Cell Signaling Technology (Danvers, Mass., USA). Antibody against Vimentin (V6630) and phospho-Ser55 Vimentin were from Sigma-Aldrich, Inc. (St. Louis, Mo.) and MBL Co. (Nagoya, Japan), respectively. Antibodies against total and phosphorylated S6 were from Cell Signaling Technology®.
(§2) The ability of the compounds with in vitro anti-PAK1 activity was assessed for activity […] in thyroid cancer cells. In addition, because the compounds are based on the structure of a PDK1 inhibitor, PDK1 inhibitory activity was also assessed. Inhibitory activity in cells was estimated using Western blot with primary antibodies directed against kinase-specific phosphorylation sites; serine 56 of vimentin for PAK and threonine 308 of Akt for PDK1. BCPAP, TPC1, and FTC133 thyroid cancer cells were utilized. BCPAP and TPC1 are derived from PTC and have BRAF V600E and RET/PTC1 rearrangements, respectively. FTC133 is derived from a follicular thyroid cancer with an inactivating mutation of PTEN. Similar to the kinase screening assay, cells were treated with the six compounds or OSU-03012 at 7.5 μM concentration or with DMSO vehicle alone. The results were not entirely consistent across the three cell lines presumably related to mutation status or other factors. OSU-03012 inhibited both PDK1 and PAK-mediated phosphorylation of targets as predicted.
(§3) The dose-dependency of compounds 4 and 15 was next assessed (FIG. 4). […] Due to the important role that ERK activation plays in thyroid cancer, and its signaling activation by thyroid oncogenes, the effects of the compounds on ERK phosphorylation was also assessed.

[2] = test system: PAK phosphorylation of Vimentin (Ser56); test: Western blot, PAK phosphorylation of Vimentin (Ser56) in thyroid cancer cells; assay type: cell-based, Human; conditions: 7.5 μM, 6 h, BCPAP, FTC133 and TPC1 cells (FIG. 3)
Method: as §1, §2, §3

BCPAP cells = test: MTT cell viability assay, BCPAP; assay type: cell-based, Human; conditions: Homo sapiens, BCPAP, 72-hours of exposure, 1% FBS, mean±standard deviation (n=3), read-out: IC50 for reducing viability of BCPAP cells versus DMSO control
Description: (§4) Human thyroid cancer BCPAP, TPC1, and FTC133 cell lines were the generous gifts of Drs. Rebecca Schweppe and Bryan Haugen (University of Colorado Denver) (Schweppe et al., The Journal of clinical endocrinology and metabolism 83:4331-4341 (2008)) with permission from the following originating laboratories: BCPAP—Dr. Fabien, Centre Hospitalier Lyon-Sud, France (Fabien et al., Cancer 73:2206-2212 (1994)); TPC1—Dr. Sato, Kanazawa University, Japan (Tanaka et al., Virology 161:62-411 (1987)); and FTC133—Dr. Goretzki, University of Leipzig, Germany (Goretzki et al., Recent Results Cancer Res 118:48-63 (1990)). The obtained cell lines were confirmed for identity by DNA fingerprinting. BCPAP was grown in RPMI 1640 medium (Life Technologies Co., Carlsbad, Calif.) while FTC133 and TPC1 were grown in DMEM (Life Technologies Co.), both supplemented with 10% fetal bovine serum (FBS) and NEAA unless as noted for experiments.
(§5) The effect of OSU-03012 and its derivatives on cell viability was assessed by using the 3-(4,5-dimethylthiazol-2-yl)-2,5-diphenyl-2H-tetrazolium bromide (MTT) assay. Three replicates were performed in each individual experiment, and experiments were repeated at least three separate times. Cells were grown in 96-well plates for 24 hours and were exposed to various concentrations of drugs dissolved in DMSO (final concentration 0.1%) in RPMI 1640 or DMEM containing 1% FBS for 72 hours. 10 μL of 0.5 mg/ml MTT was added to each well and cells were incubated in CO2 at 37° C. for 2 hours. Supernatants were removed from the wells, the reduced MTT dye was solubilized in 100 μL of solution C (12 ml of 1N HCl in 300 mL of isopropanol), and absorbance at 570 nm was determined on a microplate reader.
(§6) We assessed the ability of the compounds to reduce cell viability in vitro by MTT assay after 72 hours of continuous exposure. Results are shown in Table 1 and are depicted as the IC50 vs. simultaneously performed DMSO control.
(§7) ^aThe reported IC50 values are concentrations at which BCPAP, FTC133 and TPC1 cell viability by MTT assays 50% of DMSO control after 72-hours of exposure. Data are presented as mean±standard deviation (n=3). PAK and PDK1 Selectivity In Vivo

Recombinant active PAK 1 = target: T1, Recombinant active PAK 1 (Homo sapiens, UniProt Q13153); test: In vitro PAK1 kinase assay (MBP substrate, 32P-ATP); assay type: biochemical
T1 construct: purchased Calbiochem
T1 sequence (Q13153 whole entry): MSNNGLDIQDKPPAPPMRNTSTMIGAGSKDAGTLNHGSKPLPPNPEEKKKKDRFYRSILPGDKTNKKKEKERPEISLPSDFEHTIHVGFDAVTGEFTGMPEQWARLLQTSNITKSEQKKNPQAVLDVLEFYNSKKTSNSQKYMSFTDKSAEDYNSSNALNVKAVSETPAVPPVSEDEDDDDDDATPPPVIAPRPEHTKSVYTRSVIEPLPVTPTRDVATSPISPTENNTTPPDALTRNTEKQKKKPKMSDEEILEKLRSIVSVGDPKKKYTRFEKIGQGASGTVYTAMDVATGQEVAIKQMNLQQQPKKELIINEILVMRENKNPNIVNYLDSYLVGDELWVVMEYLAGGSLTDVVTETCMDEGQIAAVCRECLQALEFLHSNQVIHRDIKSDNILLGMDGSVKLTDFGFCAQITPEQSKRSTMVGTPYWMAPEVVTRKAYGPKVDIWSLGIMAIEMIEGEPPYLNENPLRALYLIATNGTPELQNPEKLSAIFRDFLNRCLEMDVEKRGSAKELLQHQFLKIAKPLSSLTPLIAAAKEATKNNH
Method: Recombinant active PAK 1 (Calbiochem) was incubated with selected derivatives or 0.1% DMSO in the presence or absence of MBP (Sigma) in a 1× kinase buffer (Cell Signaling). The addition of [γ-32P]-ATP (2.5 μCi/reaction) (Perkin Elmer) started the reaction, which was incubated at 30° C. for 30 minutes. The reaction was terminated by the addition of EDTA. Results were obtained after visualization of ^32P-labeled MBP after separation on 12% polyacrylamide gels and autoradiography. For the Lineweaver-Burk plot analysis, the ratio of radioactive ATP to nonradioactive ATP was not altered. The PAK1 kinase activities are the means of three independent experiments quantified using P81 phosphocellulose paper by a scintillation counter after three washes with 0.75% phosphoric acid.
Screening of OSU-03012 Derivatives to Identify PAK1 Inhibitors. The 17 derivatives along with OSU-03012, each at 7.5 μM, were screened for their ability to inhibit PAK1 activity by in vitro PAK1 kinase assay. The dose was chosen (above the IC50 of OSU-03012) to allow OSU-03012 to serve as a robust positive control. The PAK1 kinase assay was performed using recombinant active PAK1 with myelin basic protein as substrate in the presence of 2.5 μM ATP and 7.5 μM of respective inhibitors.
To further investigate these six compounds, dose-response studies on PAK1 activity were performed by using PAK1 kinase assay. […] We next questioned whether compounds 4 or 15 inhibited PAK1 in an ATP competitive manner as their parent compound OSU-03012.

FTC133 cells = test: MTT cell viability assay, FTC133; assay type: cell-based, Human; conditions: Homo sapiens, FTC-133, 72-hours of exposure, 1% FBS, mean±standard deviation (n=3), read-out: IC50 for reducing viability of FTC133 cells versus DMSO control
Description: as §4, §5, §6, §7

TPC1 cells = test: MTT cell viability assay, TPC1; assay type: cell-based, Human; conditions: Homo sapiens, TPC1, 72-hours of exposure, 1% FBS, mean±standard deviation (n=3), read-out: IC50 for reducing viability of TPC1 cells versus DMSO control
Description: as §4, §5, §6, §7

PAK = PAK (Homo sapiens, UniProt Q13153); conditions: Porchia et al., Mol Pharmacol 72:1124-1131 (2007); cited from earlier work
PAK, sequence (Q13153 whole entry): as above

SMILES | PDK1 phosphorylation of Akt (Thr308) (Western blot) [1] | PAK phosphorylation of vimentin (Western blot) [2] | IC50 (BCPAP cells) | Inhibition of PAK1 kinase activity in initial screen (Recombinant active PAK 1; 7.5 μM inhibitor, 2.5 μM ATP, myelin basic protein substrate (FIG. 2A)) | Relative PAK1 inhibitory potency (comparison in words) (Recombinant active PAK 1; in vitro kinase assay, comparison between compounds / with OSU-03012) | IC50 (FTC133 cells) | IC50 (TPC1 cells) | IC50 (Recombinant active PAK 1; in vitro kinase assay, read-out: IC50 versus PAK, in vitro (bound implied by chosen test concentration)) | PAK inhibitory activity (previously reported) (PAK)
NCCC(=O)Nc1ccc(-n2nc(CO)cc2-c2ccc3ccc4ccccc4c3c2)cc1 [Compound 11, 3-Amino-N-(4-(3-(hydroxymethyl)-5-(phenanthren-3-yl)-1H-pyrazol-1-yl)phenyl)-propanamide] | markedly inhibit PDK1 phosphorylation of Akt | did not significantly alter PAK phosphorylation of vimentin | 4.5 ± 1.04 µM | inhibited PAK1 kinase activity | more potent | 3.94 ± 2.29 µM | 4.98 ± 1.94 µM | – | –
NCC(=O)Nc1ccc(-n2nc(C(F)(F)F)cc2-c2ccc3c(ccc4ccccc43)c2)cc1 [OSU-03012, reference compound] | inhibited | inhibited | 2.93 ± 1.05 µM | – | – | 2.93 ± 1.87 µM | 2.8 ± 1.33 µM | < 7.5 µM | low micromolar concentrations
